Test results as given in patent publication US9463252B2, “Auristatin drug linker conjugates” (priority 2008, dated 2016).

What was measured:
786-O = test: Cytotoxicity of Auristatin-Peptide-h1F6 conjugates, resazurin assay; type: cell-based, human; details: for IC50 786-0: Table 4
Text: (§1) The conjugates contain approximately 4 drugs per antibody.

Caki-1 = test: as above; type: cell-based
Text: as §1

L428 = test: as above; type: cell-based
Text: as §1

HCT-116 (CD70−) = test: Cytotoxicity of Auristatin-Peptide-h1F6 conjugates, CD70- control cell line; type: cell-based
Text: as §1

Caki-2 = test: Cytotoxicity of Auristatin-Peptide-h1F6 conjugates, resazurin assay; type: cell-based
Description: as §1
Following the procedure described as Examples 57 and 58, Auristatin-Peptide-h1F6 conjugates were evaluated on CD70^+ cell, such as 786-O, Caki-1, Caki-2, and L428. Conjugates contain approximately 4 drugs per antibody.

LP-1 = test: as above; type: cell-based, human
Text: as §1

UMRC-3 = test: as above; type: cell-based
Text: as §1

U251 = test: as above; type: cell-based; details: Table 4, ~4 drugs/Ab
Text: as §1

[1] = Table 5, h1F6 conjugates, ~4 drugs/Ab
[2] = Table 7, h1F6 conjugates, AF vs MMAF
[3] = Table 8, h1F6 conjugates, D vs L amino acid in second linker position
[4] = Table 4, h1F6 conjugates, ~4 drugs/Ab
[5] = Table 9, h1F6-Drug(4) conjugates, mono- vs dipeptide linker
[6] = Table 10, h1F6-Drug(4) conjugates, aryl or alkyl maleimides

Row | Substance | IC50 786-O (786-O; [1]) [ng/mL] | IC50 Caki-1 (Caki-1; [1]) [ng/mL] | IC50 L428 (L428; [1]) [ng/mL] | IC50 HCT-116 (CD70−) (HCT-116 (CD70−); Table 5, ~4 drugs/Ab) [ng/mL] | IC50 Caki-2 (Caki-2; [1]) [ng/mL] | further results
1 | AF-Homo-β-Phenylalanine-(D)Aspartic Acid-diaminoethane-propionyl maleimide [AF-hPhe-(D)Asp] | 10 | >1000 | 29 | >1000 | >1000 | –
2 | AM-Tyrosine-(D)Aspartic Acid-diaminoethane-propionyl maleimide [AM-Tyr-(D)Asp] | 32 | 23 | 30 | >1000 | 71 | –
3 | AF-Methionine-(D)Aspartic Acid-diaminoethane-propionyl maleimide [AF-Met-(D)Asp] | 8 | 10 | 11 | >1000 | 35 | –
4 | AF-Methionine-(D)Valine-diaminoethane-propionyl maleimide [AF-Met-(D)Val] | 5 | 6 | 8 | >1000 | 32 | –
5 | AF-Arginine-(D)Lysine-diaminoethane-propionyl maleimide [AF-Arg-(D)Lys] | 8 | 10 | 47 | >1000 | 8 | –
6 | MMAF-Methionine-(D)Lysine-diaminoethane-propionyl maleimide [MMAF-Met-(D)Lys] | – | – | – | – | – | IC50 786-O (786-O; [2]): 10 ng/mL; IC50 LP-1 (LP-1; [2]): >1000 ng/mL; IC50 Caki-1 (Caki-1; [2]): 8 ng/mL; IC50 L-428 (L428; [2]): 123 ng/mL; IC50 UMRC-3 (UMRC-3; [2]): 100 ng/mL
7 | AF-Methionine-(L)Lysine-diaminoethane-propionyl maleimide [AF-Met-(L)Lys] | – | – | – | – | – | IC50 786-O (786-O; [3]): 7 ng/mL; IC50 LP-1 (LP-1; [3]): 95 ng/mL; IC50 Caki-1 (Caki-1; [3]): 4 ng/mL; IC50 L-428 (L428; [3]): 3 ng/mL; IC50 UMRC-3 (UMRC-3; [3]): 22 ng/mL
8 | AF-Methionine-(D)Methionine-diaminoethane-propionyl maleimide [AF-Met-(D)Met] | 4 | 5 | 4 | >1000 | 13 | –
9 | AW-Asparagine-(D)Lysine-diaminoethane-propionyl maleimide [AW-Asn-(D)Lys] | 16 | 15 | 19 | >1000 | 26 | –
10 | AF-Lysine-(D)Lysine-diaminoethane-propionyl maleimide [AF-Lys-(D)Lys] | 9 | 8 | 37 | >1000 | 9 | –
11 | AF-Asparagine-(L)Lysine-diaminoethane-propionyl maleimide [AF-Asn-(L)Lys] | – | – | – | – | – | IC50 786-O (786-O; [3]): 9 ng/mL; IC50 LP-1 (LP-1; [3]): 501 ng/mL; IC50 Caki-1 (Caki-1; [3]): 8 ng/mL; IC50 L-428 (L428; [3]): 8 ng/mL; IC50 UMRC-3 (UMRC-3; [3]): 26 ng/mL
12 | AW-Tyrosine-(D)Aspartic acid-diaminoethane-propionyl maleimide [AW-Tyr-(D)Asp] | 18 | 16 | 21 | >1000 | 33 | –
13 | AF-Asparagine-Proline-diaminoethane-propionyl maleimide [AF-Asn-Pro] | 11 | 12 | 23 | >1000 | 32 | –
14 | AF-Asparagine-(D)Lysine-(D)Lysine-diaminoethane-propionyl maleimide [AF-Asn-(D)Lys-(D)Lys] | 9 | 10 | 22 | >1000 | 30 | –
15 | AF-Asparagine-Valine-diaminoethane-propionyl-maleimide [AF-Asn-Val] | – | – | – | – | – | IC50 786-0 (786-O; h1F6 conjugates, ~4 drugs/Ab): 12.6 ng/mL; IC50 LP-1 (LP-1; [4]): 174 ng/mL; IC50 Caki-1 (Caki-1; [4]): 22.3 ng/mL; IC50 L428 (L428; [4]): 11.7 ng/mL; IC50 U251 (U251): 251 ng/mL; IC50 UMRC-3 (UMRC-3; [4]): 46.8 ng/mL; IC50 HCT-116 (CD70−) (HCT-116 (CD70−); Table 4, ~4 drugs/Ab): >1000 ng/mL
16 | AF-Isoleucine-Valine-diaminoethane-propionyl-maleimide [AF-Ile-Val] | – | – | – | – | – | IC50 786-0 (786-O; h1F6 conjugates, ~4 drugs/Ab): 3.4 ng/mL; IC50 LP-1 (LP-1; [4]): 19 ng/mL; IC50 Caki-1 (Caki-1; [4]): 3.7 ng/mL; IC50 L428 (L428; [4]): 2.5 ng/mL; IC50 U251 (U251): 44.6 ng/mL; IC50 UMRC-3 (UMRC-3; [4]): 19.5 ng/mL; IC50 HCT-116 (CD70−) (HCT-116 (CD70−); Table 4, ~4 drugs/Ab): >1000 ng/mL
17 | AF-Asparagine-(D)Aspartic Acid-diaminoethane-propionyl maleimide [AF-Asn-(D)Asp] | 7 | 7 | 14 | >1000 | 71 | –
18 | AF-Methionine-Proline-diaminoethane-propionyl maleimide [AF-Met-Pro] | 8 | 15 | 8 | >1000 | 25 | –
19 | AF-Citrulline-(D)Lysine-diaminoethane-propionyl maleimide [AF-Cit-(D)Lys] | 10 | 11 | 47 | >1000 | 16 | –
20 | AM-Methionine-(D)Lysine-diaminoethane-propionyl maleimide [AM-Met-(D)Lys] | 56 | 39 | 1000 | >1000 | 251 | –
21 | AF-Tyrosine-Valine-diaminoethane-propionyl-maleimide [AF-Tyr-Val] | – | – | – | – | – | IC50 786-0 (786-O; h1F6 conjugates, ~4 drugs/Ab): 3.7 ng/mL; IC50 LP-1 (LP-1; [4]): 34 ng/mL; IC50 Caki-1 (Caki-1; [4]): 7.0 ng/mL; IC50 L428 (L428; [4]): 3.0 ng/mL; IC50 U251 (U251): 46.8 ng/mL; IC50 UMRC-3 (UMRC-3; [4]): 19.5 ng/mL; IC50 HCT-116 (CD70−) (HCT-116 (CD70−); Table 4, ~4 drugs/Ab): >1000 ng/mL
22 | AF-Tyrosine-(D)Lysine-diaminoethane-propionyl maleimide [AF-Tyr-(D)Lys] | 9 | 11 | 10 | >1000 | 12 | –
23 | AF-Methionine-diaminoethane-propionyl maleimide | – | – | – | – | – | IC50 786-O (786-O; [5]): 8 ng/mL; IC50 LP-1 (LP-1; [5]): 110 ng/mL; IC50 Caki-1 (Caki-1; [5]): 6 ng/mL; IC50 L-428 (L428; [5]): 3 ng/mL; IC50 UMRC-3 (UMRC-3; [5]): 17 ng/mL
24 | AF-Methionine-(D)Lysine-(D)Lysine-diaminoethane-propionyl maleimide [AF-Met-(D)Lys-(D)Lys] | 8 | 12 | >1000 | >1000 | 25 | –
25 | AF-AsparticAcid-Valine-Diaminoethane-Propionyl-Maleimide [AF-Asp-Val] | – | – | – | – | – | IC50 786-0 (786-O; h1F6 conjugates, ~4 drugs/Ab): 18 ng/mL; IC50 LP-1 (LP-1; [4]): 234 ng/mL; IC50 Caki-1 (Caki-1; [4]): 25 ng/mL; IC50 L428 (L428; [4]): 18 ng/mL; IC50 U251 (U251): 407 ng/mL; IC50 UMRC-3 (UMRC-3; [4]): 54 ng/mL; IC50 HCT-116 (CD70−) (HCT-116 (CD70−); Table 4, ~4 drugs/Ab): >1000 ng/mL
26 | AW-Methionine-(D)Lysine-diaminoethane-benzoyl maleimide [AW-Met-(D)Lys-aryl-maleimide] | – | – | – | – | – | IC50 786-O (786-O; [6]): 12 ng/mL; IC50 Caki-1 (Caki-1; [6]): 15 ng/mL; IC50 L428 (L428; [6]): >1000 ng/mL; IC50 Caki-2 (Caki-2; [6]): 12 ng/mL
27 | AM-Asparagine-diaminoethane-propionyl maleimide [AM-Asn] | 30 | 31 | 32 | >1000 | 63 | –
28 | AM-Asparagine-(D)Lysine-diaminoethane-benzoyl maleimide [AM-Asn-(D)Lys-aryl maleimide] | – | – | – | – | – | IC50 786-O (786-O; [6]): 16 ng/mL; IC50 Caki-1 (Caki-1; [6]): 10 ng/mL; IC50 L428 (L428; [6]): 23 ng/mL; IC50 Caki-2 (Caki-2; [6]): 17 ng/mL
29 | AW-Asparagine-diaminoethane-propionyl maleimide [AW-Asn] | 18 | 15 | 22 | >1000 | 30 | –
30 | AF-Glutamine-(D)Lysine-diaminoethane-propionyl maleimide [AF-Gln-(D)Lys] | 12 | 11 | 209 | >1000 | 14 | –
